These results are taken from patent publication US20230257413A1, “ARTIFICIAL NUCLEIC ACID, METHOD FOR PRODUCING SAME, AND USE THEREOF” (RIKEN GENESIS CO., LTD., priority 2020, published 2023).

Series [1] deals with single-stranded RNA (5′-r(agcaaaaaacgc)-3′; SEQ ID NO: 7) (a sense strand). Description: Measurement of melting temperatures (Tm) of oligonucleotides, double strand forming capability with single-stranded RNA. The settings on record: antisense 5′-d(gcgnnnnnngct)-3′ (SEQ ID NO: 4); 100 mM NaCl, 10 mM sodium phosphate buffer pH 7.2, 4 μM each strand. Format: binding.
Series [2] deals with single-stranded DNA (5′-d(agcaaaaaacgc)-3′; SEQ ID NO: 6) (a sense strand). Nature of the series: Measurement of melting temperatures (Tm) of oligonucleotides, double strand forming capability with single-stranded DNA. The class given is binding. The conditions noted are these: antisense 5′-d(gcgnnnnnngct)-3′ (SEQ ID NO: 4); 100 mM NaCl, 10 mM sodium phosphate buffer pH 7.2, 4 μM each strand.

With “(R)EDM-T: SEQ ID NO: 4, n = formula (6) unit: thymin-1-yl, n 1, R^3 3-(N,N-dimethylamino)propyl, R^4 (R)-ethyl, R^5 H (DNA AGCAAAAAACG; n (R)EDM-T modified units, chemistry not fully specified; the letters are possibly those of the target site)”, the “Tm value (target: ssRNA)” value in series [1] amounted to 89 °C. Further, the “Tm value (target: ssDNA)” value in series [2] stood at 77 °C.
As for “DNA-T: 5′-d(gcgnnnnnngct)-3′ (SEQ ID NO: 4), n = formula (7) unit, Base thymin-1-yl, R^a H (natural DNA T) (DNA AGCAAAAAACGC; n natural T, chemistry not fully specified; the letters are possibly those of the target site)”, the “Tm value (target: ssRNA)” value in series [1] was 48 °C. For the same substance, the “Tm value (target: ssDNA)” value in series [2] turned out to be 52 °C.
